Test results from article PMC6864445, “New Molecular Insights into the Inhibition of Dipeptidyl Peptidase-4 by Natural Cyclic Peptide Oxytocin” (Molecules, 2019).
pIC50: −log10 of the molar value.

Columns and labels:
DPP4 = conditions: cited from earlier work; for IC50: read-out: IC50 (uM), peptides as DPP4 inhibitors, Supplementary Table S1
[1] = biological target: T1, human dipeptidyl peptidase-4 (DPP4) (Homo sapiens, UniProt P27487); assay: DPP4 inhibitor screening kit fluorescence assay (H-Gly-Pro-AMC cleavage); assay type: biochemical; conditions: n = 3
T1 construct: purchased Sigma Aldrich
Experimental: Oxytocin peptide was purchased from the company Parfarm S.A (District Federal, Mexico), and human dipeptidyl peptidase-4 inhibitor screening kit, Black-well 96 well plate for fluorescence assays were purchased from Sigma Aldrich (St. Louis, MO, USA).
The experimental studies were carried out using the human DPP4 inhibitor screening kit to validate the computational results. Briefly, the pure protein DPP4 cleaves non-fluorescence substrate H-Gly-Pro-AMC and releases fluorescence product AMC whose fluorescence emissions, λex = 360 nm and λem = 460 nm on each well, were recorded in a kinetic mode for 30 min using microplate reader Thermo Scientific Varioskan Flash Multimode Reader by Thermo Scientific. The relative percent of inhibition was calculated using Equation (1), where df/dt denotes changes in fluorescence with time. The graphs were plotted for all experiments (n = 3) using Graph Pad software. All groups were compared with p < 0.05 as statistically significant. To obtain the p-value, an ordinary one-way ANOVA unpaired t-test was applied using Graph Pad software (San Diego, CA, USA). All the data in graphs are expressed as mean ± S.D:(1) % Relative inhibition=(df/dt)DPP4 enzyme−(df/dt)(DPP4−OXT peptide)/(df/dt)DPP4 enzyme×100

T1 sequence (P27487 whole entry): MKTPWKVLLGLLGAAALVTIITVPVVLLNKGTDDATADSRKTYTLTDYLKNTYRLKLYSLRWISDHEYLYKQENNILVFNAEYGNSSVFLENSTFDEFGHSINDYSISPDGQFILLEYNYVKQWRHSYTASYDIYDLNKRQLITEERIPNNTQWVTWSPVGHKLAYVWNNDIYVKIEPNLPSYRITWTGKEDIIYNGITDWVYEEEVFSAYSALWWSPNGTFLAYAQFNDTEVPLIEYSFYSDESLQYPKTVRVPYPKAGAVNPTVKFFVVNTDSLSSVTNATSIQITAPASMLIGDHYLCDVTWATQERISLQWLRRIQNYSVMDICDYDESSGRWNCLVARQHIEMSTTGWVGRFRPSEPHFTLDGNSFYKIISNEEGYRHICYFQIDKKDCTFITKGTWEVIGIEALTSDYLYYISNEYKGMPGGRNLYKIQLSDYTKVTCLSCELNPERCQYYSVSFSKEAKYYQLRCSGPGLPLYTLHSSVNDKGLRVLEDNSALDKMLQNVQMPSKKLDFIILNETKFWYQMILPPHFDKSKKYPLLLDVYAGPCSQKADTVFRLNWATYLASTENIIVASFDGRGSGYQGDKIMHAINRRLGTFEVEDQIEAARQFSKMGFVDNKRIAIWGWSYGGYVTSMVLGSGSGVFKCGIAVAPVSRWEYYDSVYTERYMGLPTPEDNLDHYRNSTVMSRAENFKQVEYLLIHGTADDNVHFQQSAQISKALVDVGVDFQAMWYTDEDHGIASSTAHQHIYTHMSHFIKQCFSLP

Row | Molecule | IC50 (DPP4) [µM] | also measured
1 | LPYPY | 90.8 | 
2 | IPAVF | 44.7 | 
3 | LPQNIPP | 160 | 
4 | PGPIHDS | 1000 | 
5 | CC[C@H](C)[C@@H]1NC(=O)[C@H](Cc2ccc(O)cc2)NC(=O)[C@@H](N)CSSC[C@@H](C(=O)N2CCC[C@H]2C(=O)N[C@@H](CC(C)C)C(=O)NCC(N)=O)NC(=O)[C@H](CC(N)=O)NC(=O)[C@H](CCC(N)=O)NC1=O [oxytocin] |  | inhibition at 0.002 µM ([1]; 2 nM oxytocin, mean, read-out: relative percent inhibition of DPP4): 6.3%; inhibition at 0.019 µM ([1]; 19 nM oxytocin, mean, read-out: relative percent inhibition of DPP4): 44.5%; inhibition at 0.28037 µM ([1]; 280.37 nM oxytocin, mean, read-out: relative percent inhibition of DPP4): 61.6%; inhibition at 0.85047 µM ([1]; 850.47 nM oxytocin, mean, read-out: relative percent inhibition of DPP4): 75.4%; inhibition at 1.6 µM ([1]; 1600 nM oxytocin, mean, read-out: relative percent inhibition of DPP4): 81.2%; pIC50 ([1]; fluorescence assay, substrate H-Gly-Pro-AMC, λex 360 nm / λem 460 nm, kinetic mode 30 min, dose-response curve in Figure S1, read-out: inhibitory concentration IC50 of DPP4): 6.96
6 | FPGPIPD | 260 | 
7 | YPYY | 208 | 
8 | GPAG | 41.1 | 
9 | IPIQY | 26.7 | 
10 | Diprotin A | 2.9 | IC50 of DPP4 (DPP4; peptide isolated from culture of Bacillus cereus): 2900 µg/mL
11 | GPGA | 41.9 | 
12 | LPLPL | 358 | 
13 | IPIY | 35.2 | 
